One experiment concerns the target T1, FGFR2 (Homo sapiens, UniProt P21802, K310R/N549K).
T1 construct: in FGFR aberrations of AN3CA (FGFR2/k310R, N549K); host or cells: AN3CA
Kind of experiment: pERK potency assay (In Cell ELISA), AN3CA cells. Conditions: for IC50: pERK, AN3CA (FGFR2/k310R, N549K) cells, 3 hours; for FGFR1 IC50/FGFR2 IC50 / FGFR3 IC50/FGFR2 IC50: selectivity ratio, pERK potency; for FGFR1 IC50/FGFR2 IC50: FGFR2 relative to FGFR1; for FGFR3 IC50/FGFR2 IC50: FGFR2 relative to FGFR3. The experiment is classed as cell-based. In outline: (§1)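 IC50 values come from a 4-parameter sigmoidal fit of in-cell ELISA chemiluminescent pERK (Thr202/Tyr204) signal. Treatment lasted 3 h at 37 °C, final 0.000038 to 10 μM in 4-fold steps, using AN3CA (mutant FGFR2), DMS114 (amplified FGFR1) and RT112 (FGFR3 overexpression/fusion) cells.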

A further experiment addresses T2, FGFR1 (Homo sapiens, UniProt P11362).
T2 construct: DMS114 (FGFR1 amplification); host or cells: DMS114
Kind of experiment: pERK potency assay (In Cell ELISA), DMS114 cells. It is filed as cell-based. To be noted: DMS114 (FGFR1 amplification) cells, 3 hours. In outline: as §1
A general note: ELISA stands for enzyme-linked immunosorbent assay.

The next experiment addresses T3, FGFR3 (Homo sapiens, UniProt P22607).
T3 construct: RT112 (FGFR3 overexpression/FGFR3-TACC3 fusion); host or cells: RT112; the other entry of the earlier key: TACC3 (Q9Y6A5, Transforming acidic coiled-coil-containing protein 3)
Kind of experiment: pERK potency assay (In Cell ELISA), RT112 cells. To be noted: RT112 (FGFR3 overexpression/FGFR3-TACC3 fusion) cells, 3 hours. It is filed as cell-based. Put shortly:
as §1

The subject of the next experiment is AN3CA. Briefly: 2D cell proliferation assay, AN3CA. It is filed as cell-based. To be noted: Homo sapiens, AN3-CA, 96 hours, CTG, read-out: Cell Line, IC50 AN3CA. The method, then:
(§2) Low IC50 values are indicative of the high potency of the FGFR inhibitor compounds in this assay selling. […] Cell proliferation assays are performed in two-dimensional (2D)) anchorage-dependent conditions in 96 well plates (Corning® Black/Clear flat Bottom, Cat #3603) with the following cell lines: • Ba/F3 FGFR2-BICC1 (human […]): Mouse Ba/F3 cell line stably expressed exogenous human FGFR2-BICC1 fusion gene bearing V546F mutation in FGFR2 Ba/F3; • FGFR2-BICC1 (human FGFR2/[…]): Mouse Ba/F3 cell line stably expressed exogenous human FGFR2-BICC1 fusion gene bearing N549K mutation in FGFR2; • Snu-16: human gastric cancer cell with FGFR2 amplification; • KATO III: human gastric cancer cell with FGFR2 amplification; • AN3CA: Human endometrial cancer with FGFR2 mutation (k310R, N549K); • MFM-223: Human breast cancer with FGFR1/2 amplification; • MFE-296: Human endometrial cancer with FGFR2 mutation (N549K); • MFE-280: Human endometrial cancer with FGFR2 mutation ([…]); • NCI-H1581: human non-small cell lung cancer with FGFR1 amplification; • KG-1a: Acute myelogenous leukemia with FGFR1OP2-FGFR1 translocation; • DMS114: human small cell carcinoma of the lung with FGFR1 amplification; • RT112: human bladder cancer with FGFR3 overexpression/FGFR3-TACC3 fusion; • SW780: human bladder cancer with FGFR3 overexpression/FGFR3-BALAP2L1 fusion; • Hep3B: Liver cancer with FGF19 amplification (FGFR4 ligand); • AGS: Human gastric adenocarcinoma with Kras G12D mutation and FGFR wild type; • PC-9: human non-small cell lung cancer (NSCLC) with wild-type FGFR and an EGFR del19 mutation; or • H1975: human non-small cell lung cancer (NSCLC) with wild-type FGFR and EGFR L858R/T790M mutation.
(§3) Cell lines are purchased from the American Type Culture Collection (ATCC) or Sigma. All cell lines are maintained in RPMI-1640 or DMEM supplemented with 10% heat-inactivated fetal bovine serum.
(§4) Cells growing in the log phase are detached with Gibco™ TrypLE™ Express Enzyme and plated in 96 well plate at 3000 to 5000 cells/well in 100 μl of media. After overnight incubation at 37° C., 5% CO2 incubator, cells are treated with compounds (50 uL/well) at the final concentrations spanning from 0.000038 uM to 10 μM (4-fold serial dilution for total of 10 points). Cells are incubated at 37° C., 5% CO2, and 95% humidity incubator for 96 hours. At the end of incubation 2D CTG reagent from Promega was added to each well according to vendors recommendation and mixed for 10 min in dark. The luminescence signals are determined with a Biotek™ plate reader. Data is fitted using a sigmoidal curve analysis program (GraphPad Prism®) with variable hill slope and IC50 is determined.

For a further experiment, the target named is T4, Ba/F3 FGFR2-N549K (Homo sapiens, UniProt P21802, N549K, cells depend on it).
T4 construct: fused on or other part: Q9H694 (Protein bicaudal C homolog 1)
T4 sequence (P21802 whole entry N549K, the tested form may be a part): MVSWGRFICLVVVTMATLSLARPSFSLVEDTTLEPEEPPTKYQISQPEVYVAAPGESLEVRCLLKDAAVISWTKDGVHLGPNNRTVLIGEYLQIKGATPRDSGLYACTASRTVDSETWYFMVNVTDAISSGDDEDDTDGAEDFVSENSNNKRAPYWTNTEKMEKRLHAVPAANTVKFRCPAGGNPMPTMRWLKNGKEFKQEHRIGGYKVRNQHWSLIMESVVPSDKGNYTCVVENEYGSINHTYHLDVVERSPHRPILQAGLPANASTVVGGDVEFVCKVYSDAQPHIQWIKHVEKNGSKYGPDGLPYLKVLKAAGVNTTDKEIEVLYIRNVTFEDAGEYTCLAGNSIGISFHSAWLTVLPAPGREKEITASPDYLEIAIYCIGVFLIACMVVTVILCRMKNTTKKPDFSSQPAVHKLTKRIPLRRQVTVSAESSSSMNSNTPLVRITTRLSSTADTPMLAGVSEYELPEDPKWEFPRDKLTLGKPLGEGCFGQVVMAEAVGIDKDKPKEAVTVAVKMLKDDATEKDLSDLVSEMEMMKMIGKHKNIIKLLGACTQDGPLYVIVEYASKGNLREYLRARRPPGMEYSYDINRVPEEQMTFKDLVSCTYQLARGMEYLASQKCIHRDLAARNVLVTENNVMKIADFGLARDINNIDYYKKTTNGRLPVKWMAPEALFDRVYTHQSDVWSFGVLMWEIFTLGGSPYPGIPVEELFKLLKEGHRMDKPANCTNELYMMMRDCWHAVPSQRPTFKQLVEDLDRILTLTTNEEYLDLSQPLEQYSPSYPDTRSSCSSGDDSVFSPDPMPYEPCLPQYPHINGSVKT
Briefly: 2D cell proliferation assay, Ba/F3 FGFR2-N549K. It is filed as cell-based, mouse. To be noted: 96 hours, CTG, read-out: Cell Line, IC50 Ba/F3 FGFR2-N549K. How it is done: as §2, §3, §4

In another experiment the target is T5, Ba/F3 FGFR2-V564F (Homo sapiens, UniProt P21802, V564F, cells depend on it).
T5 construct: fused on or other part: Q9H694 (Protein bicaudal C homolog 1)
T5 sequence (P21802 whole entry V564F, the tested form may be a part): as the sequence (P21802 whole entry N549K, the tested form may be a part) above, with K549N, V564F counted along it
Kind of experiment: 2D cell proliferation assay, Ba/F3 FGFR2-V564F. To be noted: 96 hours, CTG, read-out: Cell Line, IC50 Ba/F3 FGFR2-V564F. It is filed as cell-based, mouse. How it is done:
as §2, §3, §4

Another experiment relates to KATO III. Briefly: 2D cell proliferation assay, KATO III. It is filed as cell-based. To be noted: Homo sapiens, 96 hours, CTG, read-out: Cell Line, IC50 KATO III. How it is done: as §2, §3, §4
A further experiment concerns SNU-16. Briefly: 2D cell proliferation assay, SNU-16. The experiment is classed as cell-based. To be noted: Homo sapiens, 96 hours, CTG, read-out: Cell Line, IC50 SNU-16. How it is done: as §2, §3, §4

This note sets out measurements from patent US20260152503A1, “SPIROBICYCLIC COMPOUNDS” (ACERAND THERAPEUTICS (HONG KONG) LIMITED, priority 2022, published 2026).

Broadly, the IC50 is the midpoint of a concentration-inhibition curve.

T2 sequence (P11362 22-822): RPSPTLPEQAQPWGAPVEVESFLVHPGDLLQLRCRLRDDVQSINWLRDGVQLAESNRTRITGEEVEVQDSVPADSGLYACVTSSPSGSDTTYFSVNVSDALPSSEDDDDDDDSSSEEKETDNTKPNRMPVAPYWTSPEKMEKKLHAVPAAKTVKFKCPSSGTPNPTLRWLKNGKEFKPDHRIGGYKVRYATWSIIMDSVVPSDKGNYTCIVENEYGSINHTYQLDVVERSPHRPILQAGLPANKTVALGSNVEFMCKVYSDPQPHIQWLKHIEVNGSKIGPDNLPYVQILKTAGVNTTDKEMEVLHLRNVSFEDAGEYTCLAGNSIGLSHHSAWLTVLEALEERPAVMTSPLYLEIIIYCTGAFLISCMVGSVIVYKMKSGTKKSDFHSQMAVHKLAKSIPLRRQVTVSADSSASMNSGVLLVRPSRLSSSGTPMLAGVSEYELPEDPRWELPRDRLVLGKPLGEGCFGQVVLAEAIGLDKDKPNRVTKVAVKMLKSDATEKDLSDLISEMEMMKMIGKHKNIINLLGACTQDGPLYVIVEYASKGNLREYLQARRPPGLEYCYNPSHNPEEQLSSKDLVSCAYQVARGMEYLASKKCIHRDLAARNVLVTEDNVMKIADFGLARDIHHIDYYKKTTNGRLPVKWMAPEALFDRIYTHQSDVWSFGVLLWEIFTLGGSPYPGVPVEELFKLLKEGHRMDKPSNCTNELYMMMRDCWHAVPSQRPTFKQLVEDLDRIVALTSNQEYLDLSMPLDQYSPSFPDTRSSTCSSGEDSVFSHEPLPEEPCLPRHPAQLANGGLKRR
T1 sequence (P21802 22-821 K310R/N549K): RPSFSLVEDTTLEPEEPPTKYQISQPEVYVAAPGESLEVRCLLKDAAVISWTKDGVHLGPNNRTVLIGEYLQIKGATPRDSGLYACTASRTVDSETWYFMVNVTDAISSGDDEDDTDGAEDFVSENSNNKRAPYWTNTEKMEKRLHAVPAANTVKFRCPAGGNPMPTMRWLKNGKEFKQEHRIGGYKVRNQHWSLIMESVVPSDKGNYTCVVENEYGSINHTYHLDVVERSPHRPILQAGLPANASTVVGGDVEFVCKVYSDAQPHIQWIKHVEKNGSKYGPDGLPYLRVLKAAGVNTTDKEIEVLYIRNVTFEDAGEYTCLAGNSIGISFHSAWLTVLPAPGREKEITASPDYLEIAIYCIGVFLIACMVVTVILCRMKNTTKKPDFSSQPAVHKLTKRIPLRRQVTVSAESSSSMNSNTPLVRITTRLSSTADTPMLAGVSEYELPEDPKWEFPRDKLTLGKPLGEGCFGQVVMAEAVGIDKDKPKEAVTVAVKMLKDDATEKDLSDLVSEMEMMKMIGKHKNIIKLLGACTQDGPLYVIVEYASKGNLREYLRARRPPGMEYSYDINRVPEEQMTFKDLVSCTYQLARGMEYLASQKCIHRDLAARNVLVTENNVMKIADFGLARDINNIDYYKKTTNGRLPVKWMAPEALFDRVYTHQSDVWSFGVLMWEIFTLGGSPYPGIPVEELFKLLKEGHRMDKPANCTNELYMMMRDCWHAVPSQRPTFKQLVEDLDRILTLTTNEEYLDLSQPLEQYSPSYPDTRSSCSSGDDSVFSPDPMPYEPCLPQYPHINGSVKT

`C=CC(=O)N1CCC2(CC=C(c3c(-c4ccc(OC5CC5)cc4)c4c(N)ncnc4n3C)CC2)CC1` [Example 18, 1-(9-(4-amino-5-(4-cyclopropoxyphenyl)-7-methyl-7H-pyrrolo[2,3-d]pyrimidin-6-yl)-3-azaspiro[5.5]undec-8-en-3-yl)prop-2-en-1-one]: the IC50 at FGFR2 is at most 1 nM; at FGFR1 it was above 100 nM; at FGFR3, above 100 nM; with AN3CA it was 10 to 30 nM; in the experiment with KATO III, 1 to 10 nM; in the experiment with SNU-16, 1 to 10 nM. The “FGFR1 IC50/FGFR2 IC50” value on FGFR2 is on record as “G (a selectivity ratio greater than 150 but less than or equal to 500)”. Besides, on FGFR2, the “FGFR3 IC50/FGFR2 IC50” value is “G (a selectivity ratio greater than 150 but less than or equal to 500)”. The GI50 at Ba/F3 FGFR2-N549K and on Ba/F3 FGFR2-V564F was 1 to 10 nM in each case.
For the molecule `C=CC(=O)N1CCC2(CC=C(c3c(-c4ccc(OC5CC5)nc4)c4c(N)ncnc4n3C)CC2)CC1` [Example 22, 1-(9-(4-amino-5-(6-cyclopropoxypyridin-3-yl)-7-methyl-7H-pyrrolo[2,3-d]pyrimidin-6-yl)-3-azaspiro[5.5]undec-8-en-3-yl)prop-2-en-1-one], the 50% inhibitory concentration (IC50) on FGFR2 is 1 to 10 nM; on FGFR1, above 100 nM; on FGFR3 it was above 100 nM; with AN3CA, 10 to 30 nM; in the experiment with KATO III it was 1 to 10 nM; with SNU-16 it was 1 to 10 nM. On FGFR2, the “FGFR1 IC50/FGFR2 IC50” value is on record as “G (a selectivity ratio greater than 150 but less than or equal to 500)”. Moreover, on FGFR2, the “FGFR3 IC50/FGFR2 IC50” value is on record as “G (a selectivity ratio greater than 150 but less than or equal to 500)”. The GI50 at Ba/F3 FGFR2-N549K and at Ba/F3 FGFR2-V564F was 1 to 10 nM throughout.
Take `C=CC(=O)N1CCC2(CC=C(c3c(-c4cnc(OC5CC5)c(F)c4)c4c(N)ncnc4n3C)CC2)CC1` [Example 23, 1-(9-(4-amino-5-(6-cyclopropoxy-5-fluoropyridin-3-yl)-7-methyl-7H-pyrrolo[2,3-d]pyrimidin-6-yl)-3-azaspiro[5.5]undec-8-en-3-yl)prop-2-en-1-one]: the 50% inhibitory concentration (IC50) was 1 to 10 nM at FGFR2; above 100 nM at FGFR1; above 100 nM at FGFR3; 10 to 30 nM with AN3CA; 1 to 10 nM with KATO III; 1 to 10 nM in the experiment on SNU-16. Moreover, the “FGFR1 IC50/FGFR2 IC50” value at FGFR2 is recorded as “G (a selectivity ratio greater than 150 but less than or equal to 500)”. For the same molecule, at FGFR2, the “FGFR3 IC50/FGFR2 IC50” value is “H (a selectivity ratio greater than 500 but less than or equal to 1000)”. Also, the GI50 lay in the range of 1 to 10 nM at Ba/F3 FGFR2-N549K and 10 to 30 nM at Ba/F3 FGFR2-V564F.
With `C=CC(=O)N1CCC2(CC=C(c3c(-c4ccc(OC5CCCC5)nc4)c4c(N)ncnc4n3C)CC2)CC1` [Example 24, 1-(9-(4-amino-5-(6-(cyclopentyloxy)pyridin-3-yl)-7-methyl-7H-pyrrolo[2,3-d]pyrimidin-6-yl)-3-azaspiro[5.5]undec-8-en-3-yl)prop-2-en-1-one], the IC50 was 1 to 10 nM at FGFR2; above 100 nM at FGFR1; above 100 nM at FGFR3; 10 to 30 nM in the experiment on AN3CA; 10 to 30 nM with KATO III; 10 to 30 nM with SNU-16. For the same molecule, at FGFR2, the “FGFR1 IC50/FGFR2 IC50” value was “F (a selectivity ratio greater than 50 but less than or equal to 150)”. Besides, the “FGFR3 IC50/FGFR2 IC50” value on FGFR2 is recorded as “F (a selectivity ratio greater than 50 but less than or equal to 150)”. Also, the GI50 is 1 to 10 nM at Ba/F3 FGFR2-N549K and 30 to 100 nM at Ba/F3 FGFR2-V564F.
As to `C=CC(=O)N1CCC2(CC=C(c3c(-c4ccc(OC5CCC5)nc4)c4c(N)ncnc4n3C)CC2)CC1` [Example 26, 1-(9-(4-amino-5-(6-cyclobutoxypyridin-3-yl)-7-methyl-7H-pyrrolo[2,3-d]pyrimidin-6-yl)-3-azaspiro[5.5]undec-8-en-3-yl)prop-2-en-1-one], the concentration for half-maximal inhibition (IC50) on FGFR2 is 1 to 10 nM; at FGFR1, above 100 nM; at FGFR3, above 100 nM; in the experiment with AN3CA, 10 to 30 nM; in the experiment with KATO III, 1 to 10 nM; in the experiment on SNU-16 it was 1 to 10 nM. For the same molecule, the “FGFR1 IC50/FGFR2 IC50” value on FGFR2 is on record as “F (a selectivity ratio greater than 50 but less than or equal to 150)”. Further, the “FGFR3 IC50/FGFR2 IC50” value at FGFR2 was “G (a selectivity ratio greater than 150 but less than or equal to 500)”. Besides, the GI50 at Ba/F3 FGFR2-N549K and at Ba/F3 FGFR2-V564F was 1 to 10 nM throughout.
As to `C=CC(=O)N1CCC2(CC=C(c3c(-c4cnc(OC)c(F)c4)c4c(N)ncnc4n3C)CC2)CC1` [Example 28, 1-(9-(4-amino-5-(5-fluoro-6-methoxypyridin-3-yl)-7-methyl-7H-pyrrolo[2,3-d]pyrimidin-6-yl)-3-azaspiro[5.5]undec-8-en-3-yl)prop-2-en-1-one], the 50% inhibitory concentration (IC50) at FGFR2 is 1 to 10 nM; at FGFR1, above 100 nM; on FGFR3, above 100 nM; in the experiment on AN3CA, 10 to 30 nM; in the experiment on KATO III it was 1 to 10 nM; in the experiment with SNU-16 it was 1 to 10 nM. For the same molecule, on FGFR2, the “FGFR1 IC50/FGFR2 IC50” value is reported as “F (a selectivity ratio greater than 50 but less than or equal to 150)”. In addition, on FGFR2, the “FGFR3 IC50/FGFR2 IC50” value is “G (a selectivity ratio greater than 150 but less than or equal to 500)”. Besides, the GI50 on Ba/F3 FGFR2-N549K fell in the range of 1 to 10 nM; at Ba/F3 FGFR2-V564F it was 10 to 30 nM.
With `C=CC(=O)N1CCC2(CC=C(c3c(-c4ncccn4)c4c(N)ncnc4n3C)CC2)CC1` [Example 33, 1-(9-(4-amino-7-methyl-5-(pyrimidin-2-yl)-7H-pyrrolo[2,3-d]pyrimidin-6-yl)-3-azaspiro[5.5]undec-8-en-3-yl)prop-2-en-1-one], the IC50 at FGFR2 was 1 to 10 nM; at FGFR1 it was above 100 nM; on FGFR3, above 100 nM; in the experiment with AN3CA, 10 to 30 nM; with KATO III, 1 to 10 nM; in the experiment with SNU-16, 1 to 10 nM. Besides, the “FGFR1 IC50/FGFR2 IC50” value at FGFR2 is reported as “G (a selectivity ratio greater than 150 but less than or equal to 500)”. Moreover, the “FGFR3 IC50/FGFR2 IC50” value on FGFR2 is “I (a selectivity ratio greater than 1000 but less than or equal to 2000)”. The GI50 at Ba/F3 FGFR2-N549K is 1 to 10 nM; at Ba/F3 FGFR2-V564F, at most 1 nM.
